Assay results taken from ChEMBL document CHEMBL5579802, “Identification of 3,4-dihydropyrimido[4,5-d]pyrimidin-2(1H)-one scaffolds as potent Lck inhibitors as anti-cancer agents” (Bioorg Med Chem Lett, 2024).

Key:
[1] = system: COLO 201; assay: Induction of apoptosis in human COLO201 cells assessed as viable cells at 0.2 uM by Annexin V-FITC and PI staining based flow cytometry analysis ( Rvb = 90%); type: functional; settings: read-out: Activity
[2] = system: COLO 201; assay: Antiproliferative activity against human COLO201 cells; type: functional
[3] = system: COLO 205; assay: Antiproliferative activity against human COLO 205 cells; type: functional
[4] = system: HCC 2998; assay: Antiproliferative activity against human HCC 2998 cells; type: functional
[5] = system: HCT-116; assay: Antiproliferative activity against human HCT-116 cells; type: functional
[6] = system: HCT-15; assay: Antiproliferative activity against human HCT-15 cells; type: functional
[7] = system: HT-29; assay: Antiproliferative activity against human HT-29 cells; type: functional
[8] = system: KM12; assay: Antiproliferative activity against human KM12 cells; type: functional
[9] = system: SW-620; assay: Antiproliferative activity against human SW620 cells; type: functional
[10] = system: COLO 201; assay: Induction of apoptosis in human COLO201 cells assessed as increase in cleaved PARP level by Western blotting analysis; type: functional, cell-based; settings: dose 1-10 µM
[11] = system: COLO 201; assay: Induction of apoptosis in human COLO201 cells assessed as early apoptotic cells at 0.2 uM by Annexin V-FITC and PI staining based flow cytometry analysis (reference value: 3.2%); type: functional
[12] = system: COLO 201; assay: Induction of apoptosis in human COLO201 cells assessed as late apoptotic cells at 0.2 uM by Annexin V-FITC and PI staining based flow cytometry analysis (reference value: 6.2%); type: functional
[13] = system: COLO 201; assay: Induction of apoptosis in human COLO201 cells assessed as necrotic cells at 0.2 uM by Annexin V-FITC and PI staining based flow cytometry analysis (reference value: 0.7%); type: functional
[14] = system: COLO 201; assay: Induction of apoptosis in human COLO201 cells assessed as viable cells at 1 uM by Annexin V-FITC and PI staining based flow cytometry analysis (reference value: 90%); type: functional; settings: read-out: Activity
[15] = system: COLO 201; assay: Induction of apoptosis in human COLO201 cells assessed as early apoptotic cells at 1 uM by Annexin V-FITC and PI staining based flow cytometry analysis (reference value: 3.2%); type: functional
[16] = system: COLO 201; assay: Induction of apoptosis in human COLO201 cells assessed as necrotic cells at 1 uM by Annexin V-FITC and PI staining based flow cytometry analysis (reference value: 0.7%); type: functional
[17] = system: COLO 201; assay: Induction of apoptosis in human COLO201 cells assessed as viable cells at 2 uM by Annexin V-FITC and PI staining based flow cytometry analysis (reference value: 90%); type: functional; settings: read-out: Activity
[18] = system: COLO 201; assay: Induction of apoptosis in human COLO201 cells assessed as early apoptotic cells at 2 uM by Annexin V-FITC and PI staining based flow cytometry analysis (reference value: 3.2%); type: functional
[19] = system: COLO 201; assay: Induction of apoptosis in human COLO201 cells assessed as necrotic cells at 2 uM by Annexin V-FITC and PI staining based flow cytometry analysis (reference value: 0.7%); type: functional
[20] = system: COLO 201; assay: Induction of apoptosis in human COLO201 cells assessed as viable cells at 10 uM by Annexin V-FITC and PI staining based flow cytometry analysis (reference value: 90%); type: functional; settings: read-out: Activity
[21] = system: COLO 201; assay: Induction of apoptosis in human COLO201 cells assessed as early apoptotic cells at 10 uM by Annexin V-FITC and PI staining based flow cytometry analysis (reference value: 3.2%); type: functional
[22] = system: COLO 201; assay: Induction of apoptosis in human COLO201 cells assessed as necrotic cells at 10 uM by Annexin V-FITC and PI staining based flow cytometry analysis (reference value: 0.7%); type: functional
[23] = system: HL-60(TB); assay: Antiproliferative activity against human HL-60(TB) cells; type: functional
[24] = system: K562; assay: Antiproliferative activity against human K562 cells; type: functional
[25] = system: MOLT-4; assay: Antiproliferative activity against human MOLT-4 cells; type: functional
[26] = system: SR; assay: Antiproliferative activity against human SR cells; type: functional
[27] = system: A549; assay: Antiproliferative activity against human A549 cells; type: functional
[28] = system: EKVX; assay: Antiproliferative activity against human EKVX cells; type: functional
[29] = system: HOP-62; assay: Antiproliferative activity against human HOP-62 cells; type: functional
[30] = system: HOP-92; assay: Antiproliferative activity against human HOP-92 cells; type: functional
[31] = system: NCI-H226; assay: Antiproliferative activity against human NCI-H226 cells; type: functional
[32] = system: NCI-H23; assay: Antiproliferative activity against human NCI-H23 cells; type: functional
[33] = Antiproliferative activity against human […] cells; type: functional
[34] = system: NCI-H460; assay: Antiproliferative activity against human NCI-H460 cells; type: functional

Cc1ccc(Nc2ncc3c(n2)N(C)C(=O)N(c2cc(NC(=O)c4ccc([N+](=O)[O-])c(OCC(C)C)c4)ccc2C)C3)cn1
viability at 0.2 µM [1]: 80.9% | GI50 [2]: 1.26 µM | GI50 [3]: 0.24 µM | GI50 [4]: 1.1 µM | GI50 [5]: 0.33 µM | GI50 [6]: 0.41 µM | GI50 [7]: 0.41 µM | GI50 [8]: 0.74 µM | GI50 [9]: 0.52 µM | Activity [10]: Dose-Dependent Effect | Activity [11]: 5.6% | Activity [12]: 11.7% | Activity [13]: 1.8% | viability at 1 µM [14]: 61.3% | Activity [15]: 13.9% | Activity [16]: 4.6% | viability at 2 µM [17]: 57.1% | Activity [18]: 17% | Activity [19]: 5.2% | viability at 10 µM [20]: 54.4% | Activity [21]: 13.3% | Activity [22]: 7.4% | GI50 [23]: 0.23 µM | GI50 [24]: 0.01 µM | GI50 [25]: 0.43 µM | GI50 [26]: 0.18 µM | GI50 [27]: 0.43 µM | GI50 [28]: 0.98 µM | GI50 [29]: 1.13 µM | GI50 [30]: 0.09 µM | GI50 [31]: 0.41 µM | GI50 [32]: 0.499 µM | GI50 [33]: 0.48 µM | GI50 [34]: 0.43 µM
